Laboratory results reported in PubChem BioAssay AID248 (DTP/NCI, 2004).
Where “and” joins values, the source holds several entries; their conditions need not be identical. Identical values can stand only once. Toxic doses and inconclusive results are not listed. Cut-off read from the data, not from the text of the source: active = T/C of 150% or more; inactive = T/C below 125%.

System: L1210 leukemia ip in BDF1 mice, survival T/C
Experiment: NCI In Vivo Anticancer Drug Screen. Data for tumor model L1210 Leukemia (intraperitoneal) in B6D2F1 (BDF1) mice
Details: endpoint: mean survival time, higher = longer survival
Method in brief: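 Each compound was tested against a transplantable tumor grown in mice. The endpoint was survival, with treated animals benchmarked against vehicle controls as a simple ratio.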

[1] = dose: 100.0 mg/kg/injection, schedule: Q04DX003 (ip), vehicle: saline
[2] = dose: 200.0 mg/kg/injection, schedule: Q04DX003 (ip), vehicle: saline
[3] = dose: 400.0 mg/kg/injection, schedule: Q04DX003 (ip), vehicle: saline
[4] = dose: 50.0 mg/kg/injection, schedule: Q01DX009 (ip), vehicle: saline
[5] = dose: 100.0 mg/kg/injection, schedule: Q01DX009 (ip), vehicle: saline
[6] = dose: 200.0 mg/kg/injection, schedule: Q01DX009 (ip), vehicle: saline
[7] = dose: 50.0 mg/kg/injection, schedule: Q01DX001 (ip), vehicle: saline
[8] = dose: 100.0 mg/kg/injection, schedule: Q01DX001 (ip), vehicle: saline
[9] = dose: 100.0 mg/kg/injection, schedule: Q04DX003 (ip), vehicle: Klucel (hydroxypropylcellulose) (HPC)
[10] = dose: 200.0 mg/kg/injection, schedule: Q04DX003 (ip), vehicle: Klucel (hydroxypropylcellulose) (HPC)
[11] = dose: 400.0 mg/kg/injection, schedule: Q04DX003 (ip), vehicle: Klucel (hydroxypropylcellulose) (HPC)
[12] = dose: 100.0 mg/kg/injection, schedule: Q01DX001 (ip), vehicle: Klucel (hydroxypropylcellulose) (HPC)
[13] = dose: 200.0 mg/kg/injection, schedule: Q01DX001 (ip), vehicle: Klucel (hydroxypropylcellulose) (HPC)
[14] = dose: 400.0 mg/kg/injection, schedule: Q01DX001 (ip), vehicle: Klucel (hydroxypropylcellulose) (HPC)
[15] = dose: 100.0 mg/kg/injection, schedule: Q01DX009 (ip), vehicle: Klucel (hydroxypropylcellulose) (HPC)
[16] = dose: 200.0 mg/kg/injection, schedule: Q01DX009 (ip), vehicle: Klucel (hydroxypropylcellulose) (HPC)
[17] = dose: 200.0 mg/kg/injection, schedule: Q01DX001 (ip), vehicle: saline
[18] = dose: 400.0 mg/kg/injection, schedule: Q01DX001 (ip), vehicle: saline

Measured: T/C

O=[N+]([O-])C1C=CCS1(=O)=O (configuration not stated)
inactive: [1] 95 % of control | [2] 96 % of control | [3] 86 % of control

CN=C(N)Nc1ccccc1
inactive: dose: 50.0 mg/kg/injection, schedule: Q01DX009 (ip), vehicle: saline with Tween-80 97 % of control | [4] 101 % of control | dose: 100.0 mg/kg/injection, schedule: Q01DX009 (ip), vehicle: saline with Tween-80 90 % of control | [5] 101 % of control | dose: 200.0 mg/kg/injection, schedule: Q01DX009 (ip), vehicle: saline with Tween-80 97 % of control | [6] 101 % of control

O=C(O)c1ccc(N/N=C/C(F)(F)F)cc1
inactive: dose: 25.0 mg/kg/injection, schedule: Q01DX009 (ip), vehicle: saline 95 % of control and 98 % of control | [7] 110 % of control | [4] 93 % of control and 106 % of control | [8] 96 % of control | [5] 95 % of control and 87 % of control | dose: 100.0 mg/kg/injection, schedule: Q04DX002 (ip), vehicle: saline 106 % of control and 109 % of control | dose: 200.0 mg/kg/injection, schedule: Q04DX002 (ip), vehicle: saline 96 % of control

CN(C)C(=O)Sc1c(Cl)cc(S(=O)(=O)F)cc1[N+](=O)[O-]
inactive: [9] 102 % of control | [10] 101 % of control | [11] 100 % of control

O=[N+]([O-])/C(N=Nc1ccc2ccccc2c1)=N\Nc1ccc2ccccc2c1
inactive: dose: 10.0 mg/kg/injection, schedule: Q01DX001 (ip), vehicle: acetone 98 % of control | dose: 20.0 mg/kg/injection, schedule: Q01DX001 (ip), vehicle: acetone 94 % of control | dose: 40.0 mg/kg/injection, schedule: Q01DX001 (ip), vehicle: acetone 88 % of control | dose: 75.0 mg/kg/injection, schedule: Q01DX001 (ip), vehicle: acetone 89 % of control | dose: 300.0 mg/kg/injection, schedule: Q01DX001 (ip), vehicle: acetone 89 % of control

CCCC(CCC#N)C(=O)c1ccccc1 (configuration not stated)
inactive: [12] 91 % of control | [13] 98 % of control | [14] 95 % of control

O=C(Nc1ccc(S(=O)(=O)Nc2ncccn2)cc1)c1ccc(C(=O)Nc2ccc(S(=O)(=O)Nc3ncccn3)cc2)cc1
inactive: dose: 50.0 mg/kg/injection, schedule: Q01DX015 (ip), vehicle: methylcellulose (MC) 100 % of control | dose: 100.0 mg/kg/injection, schedule: Q01DX015 (ip), vehicle: methylcellulose (MC) 103 % of control | dose: 200.0 mg/kg/injection, schedule: Q01DX015 (ip), vehicle: methylcellulose (MC) 97 % of control | dose: 400.0 mg/kg/injection, schedule: Q01DX015 (ip), vehicle: methylcellulose (MC) 106 % of control

O=C(Nc1cccc(O)c1)Nc1cc([N+](=O)[O-])ccc1F
inactive: [12] 91 % of control | [15] 100 % of control and 90 % of control | [9] 93 % of control | [13] 98 % of control | [16] 94 % of control and 95 % of control | [10] 102 % of control | [14] 94 % of control | dose: 400.0 mg/kg/injection, schedule: Q01DX009 (ip), vehicle: Klucel (hydroxypropylcellulose) (HPC) 94 % of control and 100 % of control | [11] 95 % of control

CC(=O)C1CCC2C3CC=C4CC(O)C=CC4(C)C3CCC12C (configuration not stated)
inactive: [9] 92 % of control | [10] 96 % of control | [11] 92 % of control

O=C(N/C(=C/c1ccc([N+](=O)[O-])cc1)C(=O)c1ccccc1)c1ccc([N+](=O)[O-])cc1
inactive: [7] 101 % of control | [8] 103 % of control | [17] 97 % of control | [18] 90 % of control

Oc1[nH]c(=S)sc1/C=C1\C=NN=N1
inactive: dose: 100.0 mg/kg/injection, schedule: Q01DX001 (ip), vehicle: other 108 % of control | dose: 200.0 mg/kg/injection, schedule: Q01DX001 (ip), vehicle: other 97 % of control | dose: 400.0 mg/kg/injection, schedule: Q01DX001 (ip), vehicle: other 101 % of control

Clc1nc2cc(Cl)c(Cl)cc2[nH]1
inactive: dose: 100.0 mg/kg/injection, schedule: Q04DX003 (ip), vehicle: acetone 95 % of control | dose: 200.0 mg/kg/injection, schedule: Q04DX003 (ip), vehicle: acetone 95 % of control

N#Cc1ccc(CC(=O)c2ccccc2)cc1
inactive: [7] 101 % of control | [8] 97 % of control | [17] 101 % of control | [18] 95 % of control

CCCCOC(=O)C1C=C(N)CCC1 (configuration not stated)
inactive: dose: 100.0 mg/kg/injection, schedule: Q01DX001 (ip), vehicle: carboxymethylcellulose (CMC) 92 % of control | dose: 200.0 mg/kg/injection, schedule: Q01DX001 (ip), vehicle: carboxymethylcellulose (CMC) 89 % of control | dose: 400.0 mg/kg/injection, schedule: Q01DX001 (ip), vehicle: carboxymethylcellulose (CMC) 94 % of control

O=C(O)C1CC2C3(Cl)C(Cl)=C(Cl)C(Cl)C2(CC1c1c2ccc(=O)c(O)c-2oc2c(O)c(O)ccc12)C3(Cl)Cl (configuration not stated)
inactive: [9] 96 % of control | [10] 94 % of control | [11] 96 % of control

NC(=O)Oc1ccccc1
inactive: [8] 98 % of control | [5] 102 % of control | [1] 95 % of control | [17] 98 % of control | [6] 111 % of control | [2] 98 % of control | [18] 96 % of control | dose: 400.0 mg/kg/injection, schedule: Q01DX009 (ip), vehicle: saline 120 % of control | [3] 103 % of control

O=C(Nc1cc(F)ccc1F)Oc1cccnc1
inactive: dose: 25.0 mg/kg/injection, schedule: Q01DX001 (ip), vehicle: Klucel (hydroxypropylcellulose) (HPC) 102 % of control | dose: 25.0 mg/kg/injection, schedule: Q04DX003 (ip), vehicle: Klucel (hydroxypropylcellulose) (HPC) 107 % of control | dose: 50.0 mg/kg/injection, schedule: Q01DX001 (ip), vehicle: Klucel (hydroxypropylcellulose) (HPC) 104 % of control | dose: 50.0 mg/kg/injection, schedule: Q04DX003 (ip), vehicle: Klucel (hydroxypropylcellulose) (HPC) 106 % of control | dose: 75.0 mg/kg/injection, schedule: Q01DX009 (ip), vehicle: Klucel (hydroxypropylcellulose) (HPC) 103 % of control and 108 % of control | [12] 96 % of control | [15] 95 % of control and 109 % of control | dose: 100.0 mg/kg/injection, schedule: Q04DX002 (ip), vehicle: Klucel (hydroxypropylcellulose) (HPC) 95 % of control and 105 % of control | [9] 97 % of control | dose: 150.0 mg/kg/injection, schedule: Q01DX009 (ip), vehicle: Klucel (hydroxypropylcellulose) (HPC) 107 % of control | [16] 100 % of control | dose: 200.0 mg/kg/injection, schedule: Q04DX002 (ip), vehicle: Klucel (hydroxypropylcellulose) (HPC) 100 % of control and 108 % of control | dose: 400.0 mg/kg/injection, schedule: Q04DX002 (ip), vehicle: Klucel (hydroxypropylcellulose) (HPC) 94 % of control and 87 % of control

CC(C)=CCC/C(C)=C\COc1cccc(C)c1
inactive: dose: 100.0 mg/kg/injection, schedule: Q04DX002 (ip), vehicle: saline with Tween-80 100 % of control | dose: 200.0 mg/kg/injection, schedule: Q04DX002 (ip), vehicle: saline with Tween-80 96 % of control | dose: 400.0 mg/kg/injection, schedule: Q04DX002 (ip), vehicle: saline with Tween-80 96 % of control
